# PMC8307506, “Identification of Dihydromyricetin and Metabolites in Serum and Brain Associated with Acute Anti-Ethanol Intoxicating Effects in Mice” (International Journal of Molecular Sciences, 2021)
# Legend:
# [1] = parameters: method as in PMID 27951743; conditions: rats; cited from earlier work
# [2] = test system: P-glycoprotein (Pgp) efflux transporters; parameters: method as in PMID 33810134, PMID 25985195; conditions: cited from earlier work
# C57BL/6J mice = assay: Ethanol-induced loss of righting reflex (LORR); type: in vivo
# Protocol: Eight-week-old male and female C57BL/6J mice (Jackson’s Laboratories, Bar Harbor, ME, USA) were housed 4 mice to a cage (separated by sex) and maintained on 12-h light, 12-h dark cycles (lights on at 0700 h) in the animal facility at the Department of Animal Sciences, Rutgers University. Following 1-week acclimation, animals were given ad libitum access to water and a polyphenol-free diet (PFD; 3.82 kcal/g, 10% fat, 20% protein, 70% carbohydrate; D12450H; Research Diets, Inc., New Brunswick, NJ, USA) for at least 10 days. For PK studies, after an overnight fast, mice were administered 50 mg/kg DHM (dissolved in 0.9% saline with 10% DMSO) by either IP injection or oral gavage. […] Duration of LORR was determined by ability to return upright 3 times within 30 s. To determine whether ethanol-induced tolerance developed, one week (Week 1; Baseline) prior to the 6-week repeated DHM dosing study all mice were oral dose with ethanol (5 g/kg) without any IP injection and LORR was measured. […]
# Pharmacokinetic parameters were calculated using noncompartmental analysis. Elimination half-life (T1/2) was calculated with R software from the linear regression of the terminal phase of the log serum concentration-time curve. The AUC0→24 was calculated with OriginLab software by trapezoidal analysis of the serum concentration-time plot. Cmax and Tmax were determined directly from observed data. Data are expressed as mean ± SEM. Statistical significance between AUC0→24 among test groups was calculated with an independent t-test (GraphPad software, San Diego, CA, USA). Time to LORR was analyzed by repeated measured ANOVA. Tolerance was determined by mean split in LORR response and confirmed with paired t-test (Week 1 vs. Week 8). Statistical significance of serum concentrations for individual time points was calculated using a two-way analysis of variance (ANOVA) analysis. […] Statistical significance of electrophysiology results compound GABAergic modulation was determined using a paired t-test (Vehicle control vs. Compound, GraphPad software, San Diego CA, USA). p < 0.05 was considered significant.
# α5β3γ2 GABAA receptors = biological target: T1, α5β3γ2 GABAA receptors (Homo sapiens, UniProt P18507+P28472+P31644); assay: Two-electrode voltage clamp electrophysiology in Xenopus oocytes in the presence of GABA; type: cell-based; conditions: compound 10 µM, GABA 10 µM
# T1 construct: expressed in transfected cells; host or cells: Xenopus oocytes (injected with cDNA)
# Protocol: Xenopus oocytes were stored in incubation media (pH 7.5), consisting of ND96 supplemented with 2 mM sodium pyruvate, […] gentamycin, and 10 mL heat inactivated HyClone horse serum. Stage 4 to 5 oocytes were injected with 40 nL of cDNA coding for α5, β3, and γ2 subunits in a ratio of 1:1:10, utilizing a Drummond Nanoject III. Injected oocytes were stored at 18 °C and used in electrophysiology studies within 2–7 days of injection.
# Whole cell two-electrode voltage clamp (TEVC) recording were conducted on oocytes in the presence of GABA, according to previously reported methods. Oocytes were voltage clamped at a membrane potential of −70 mV. The oocyte recording chamber was continuously perfused with modified bath solution (MBS) with select compound (10 µM) and GABA (10 µM), with a final concentration of 1% DMSO [22, 44]. […] Oocytes were perfused at a rate of 3 mL/min. Electrophysiology recordings were conducted in triplicate compound for each compound. The change of GABAAR activity was determined by comparison of GABAAR potentiation to the EC20 with control saline in the presence of GABA.
# Pharmacokinetic parameters were calculated using noncompartmental analysis. Elimination half-life (T1/2) was calculated with R software from the linear regression of the terminal phase of the log serum concentration-time curve. The AUC0→24 was calculated with OriginLab software by trapezoidal analysis of the serum concentration-time plot. Cmax and Tmax were determined directly from observed data. Data are expressed as mean ± SEM. Statistical significance between AUC0→24 among test groups was calculated with an independent t-test (GraphPad software, San Diego, CA, USA). Time to LORR was analyzed by repeated measured ANOVA. Tolerance was determined by mean split in LORR response and confirmed with paired t-test (Week 1 vs. Week 8). Statistical significance of serum concentrations for individual time points was calculated using a two-way analysis of variance (ANOVA) analysis. Post hoc Bonferroni tests were performed when justified. Statistical significance of electrophysiology results compound GABAergic modulation was determined using a paired t-test (Vehicle control vs. Compound, GraphPad software, San Diego CA, USA). p < 0.05 was considered significant.
# T1 sequence (P31644 32-462): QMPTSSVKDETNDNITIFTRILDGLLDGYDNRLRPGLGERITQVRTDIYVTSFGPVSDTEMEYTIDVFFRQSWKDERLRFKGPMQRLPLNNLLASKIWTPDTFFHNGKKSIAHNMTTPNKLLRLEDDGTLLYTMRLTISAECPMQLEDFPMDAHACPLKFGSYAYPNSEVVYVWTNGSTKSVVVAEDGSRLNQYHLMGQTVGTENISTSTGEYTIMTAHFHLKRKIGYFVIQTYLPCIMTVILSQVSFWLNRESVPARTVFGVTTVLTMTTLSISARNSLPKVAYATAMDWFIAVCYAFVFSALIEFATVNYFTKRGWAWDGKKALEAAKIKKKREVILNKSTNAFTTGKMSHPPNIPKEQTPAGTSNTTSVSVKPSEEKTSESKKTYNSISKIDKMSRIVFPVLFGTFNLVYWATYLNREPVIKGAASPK
# T1 sequence (P28472 26-473): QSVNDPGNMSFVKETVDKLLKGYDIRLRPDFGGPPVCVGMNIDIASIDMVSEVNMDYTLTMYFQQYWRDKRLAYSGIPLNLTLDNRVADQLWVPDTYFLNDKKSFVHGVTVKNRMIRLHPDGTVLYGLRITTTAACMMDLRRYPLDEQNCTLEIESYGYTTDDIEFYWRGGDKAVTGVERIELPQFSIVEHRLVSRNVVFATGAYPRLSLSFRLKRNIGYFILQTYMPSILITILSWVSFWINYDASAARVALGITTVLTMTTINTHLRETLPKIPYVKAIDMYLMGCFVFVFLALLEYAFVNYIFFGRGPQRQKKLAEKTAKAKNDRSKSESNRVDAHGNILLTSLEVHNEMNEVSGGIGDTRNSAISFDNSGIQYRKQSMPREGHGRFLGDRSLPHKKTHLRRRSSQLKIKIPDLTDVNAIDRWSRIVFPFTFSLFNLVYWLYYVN
# T1 sequence (P18507 40-475): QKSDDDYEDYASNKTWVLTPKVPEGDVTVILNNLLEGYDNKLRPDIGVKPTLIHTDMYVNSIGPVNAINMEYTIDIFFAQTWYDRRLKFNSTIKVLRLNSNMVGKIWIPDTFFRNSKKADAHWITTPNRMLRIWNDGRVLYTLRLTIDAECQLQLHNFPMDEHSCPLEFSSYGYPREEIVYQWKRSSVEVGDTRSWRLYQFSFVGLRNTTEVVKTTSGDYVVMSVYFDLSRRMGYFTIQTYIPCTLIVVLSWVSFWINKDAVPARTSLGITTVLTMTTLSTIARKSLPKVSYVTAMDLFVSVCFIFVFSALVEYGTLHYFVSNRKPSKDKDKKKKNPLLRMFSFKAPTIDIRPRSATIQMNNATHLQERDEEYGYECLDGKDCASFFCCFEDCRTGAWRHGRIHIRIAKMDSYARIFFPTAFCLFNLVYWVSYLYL
smiles,measurement,setting,value
"O=C1c2c(O)cc(O)cc2O[C@H](c2cc(O)c(O)c(O)c2)[C@H]1O [DHM, Dihydromyricetin]",oral absolute bioavailability,[1],4.02%
same,Pgp interaction,[2],Pgp substate and inhibitor
same,ethanol-induced loss of righting reflex,"C57BL/6J mice; C57BL/6J mice, DHM 50 mg/kg IP 0 or 15 min prior to ethanol PO 5 g/kg",significantly reduced
same,LORR compared with vehicle treated mice,"C57BL/6J mice; female mice, DHM 50 mg/kg IP at time 0 and 45 min before oral ethanol 5 g/kg, p < 0.05",reducing LORR
same,LORR,"C57BL/6J mice; responsive mice (5 males/3 females), DHM 50 mg/kg IP at time 0 and 15 min prior to ethanol PO, p < 0.05",demonstrated a reduction in LORR
same,GABAAR potentiation,α5β3γ2 GABAA receptors,+43.2%
same,GABAAR potentiation,α5β3γ2 GABAA receptors; mean ± SEM,+43.2 ± 5.6
